Results from US20010012631A1, “Plant clonal lines and plants having elevated secondary metabolite levels” (University of Massachusetts Medical Center, a Massachusetts …, priority 1997, published 2001).
“And” between values parts separate entries of the source, which are not always exact repeats. Equal values may be shown once. Read-outs that look alike come from different tables or passages of the source.

Key:
oregano clonal line OM-8 = experiment: Morphological abnormalities / tolerance of cultured shoots, oregano line OM-8; format: cell-based; settings: line OM-8, 200 μM A2C
Protocol: (§1) Pseudomonas tolerance of Pseudomonas-treated shoots was determined by visual observation with a stereomicroscope (Olympus-SZ40, Tokyo, Japan) at a magnification of 34X. Cultured shoots were evaluated for morphological abnormalities, including malformation, necrosis, and chlorophyll deficiency. The response of individual tissue propagules to Pseudomonas contact was similar within each line, i.e., there was little or no variation among tissue propagules within each line.
(§2) Individual shoot tissue propagules of each clonal line were transferred to half strength hormone-free MS medium supplement with A2C. RA content and morphological abnormalities were determined as described in Example 1.

oregano clonal lines = experiment: Selection for A2C tolerance: RA content of about 100 oregano clonal lines; format: cell-based; settings: small fraction of about 100 oregano lines, 200 μM A2C, 30 days
Protocol: (§3) Samples of Pseudomonas-treated and untreated control shoots from each line were assayed for rosmarinic acid content and proline content. Rosmarinic acid was extracted from 50 mg of fresh shoot tissue using 2 ml of 50% (v/v) methanol and incubating for 1 hour at 55° C. One ml of the methanol extract was diluted 1:18 and the absorbance of the diluted extract was measured at 333 nm in a Genesys spectrophotometer (Spectronic Instruments, Rochester, N.Y.). The concentration of RA in the extract was calculated using an extinction coefficient of ε333=19,000 τmol^−1cm^−1. Values for the concentration of RA for each treatment/clonal line shown in the Tables and Figures of this application are the average of at least 5 separate extracts. Total rosmarinic acid content was expressed as % g/g fresh weight (FW) of tissue.
About 100 oregano clonal lines are initiated as described in Example 1. Lines are maintained on MS medium containing BAP as described in Example 1. At the end of a subculture cycle, 50 shoot propagules of each clonal line are transferred to half-strength hormone-free MS medium containing 200 μM A2C. Propagules are then cultured for 30 days as described in Example 1, and assayed for RA content as described in Example 1. Total phenolic content is measured as described in U.S. application Ser. No. 08/771,241, filed Dec. 20, 1996, incorporated herein by reference.

[1] = test system: rosemary clonal line R-15; experiment: RA content of shoot propagules, rosemary clonal line R-15; format: cell-based; settings: 30 to 45 days
Protocol: as §3
(§4) Three clonal thyme lines and five rosemary clonal lines were isolated and maintained in culture as described in U.S. application Ser. No. 08/771,241, filed Dec. 20, 1996 and incorporated herein by reference.
(§5) Individual shoot propagules of each clonal line were transferred to half-strength hormone-free MS media supplemented with A2C and cultured for 30 to 45 days. RA content and morphological abnormalities were determined at the end of the culture period as described in Example 1.

oregano clonal line 0-4 [2] = experiment: Morphological abnormalities / tolerance of cultured shoots, oregano line 0-4; format: cell-based; settings: line 0-4 cultured in the presence of 100 μM azetidine-2-carboxylic acid
Protocol: as §1
(§6) Shoot tissue from oregano lines 0-4 and 0-5 was also cultured in the presence of A2C for 30 days. Samples of treated and control shoots were then assayed for RA content on a fresh weight basis and for morphological abnormalities.

oregano clonal line 0-5 [3] = experiment: Morphological abnormalities / tolerance of cultured shoots, oregano line 0-5; format: cell-based; settings: line 0-5, 200 μM A2C
Protocol: as §1, §6, §2

rosemary clonal line R-1 [4] = experiment: Morphological abnormalities / tolerance of cultured shoots, rosemary line R-1; format: cell-based; settings: rosemary line R-1, 200 μM A2C
Protocol: as §1, §5

[5] = test system: phenylalanine ammonia lyase (PAL); format: cell-based, oregano; settings: A2C 50 μM
Protocol: These enzymes are involved in synthesis of phenolic secondary metabolites (PAL) and in the pentose phosphate pathway (G-6-PDH).
One gm fresh weight of leaves were ground to a powder in liquid nitrogen, and homogenized in 0.1 M Tris-HCl buffer (pH 7.4) containing 1 mM phenylmethyl-sulfonyl fluoride (PMSF), 0.1% polyvinylpyrrolidone (PVP, to remove phenolics and polysaccharides) and 1 mM dithiothreitol (DTT). Extracts were centrifuged at 15,000×g for 20 minutes, and supernatants (5 ml) were partially purified through a PD 10 column (Pharmacia, Inc., NJ). Protein was eluted from the column using 5 ml of 0.1 M Tris-HCl, pH 8.5, which is close to the pH optimum of plant glucose-6-phosphate dehydrogenase (pH 8.0-8.2) and PAL (pH 8.8).
Phenylalanine ammonia-lyase (PAL) activity in the protein extract was assayed based on the conversion of L-phenylalanine (6.67 mM) to trans cinnamic acid. The reaction was carried out at 30° C. in borate buffer (33 mM), pH 8.8 with L-phenylalanine as substrate and the change in absorbance at 290 nm was measured. PAL was expressed as nanomoles of trans-cinnamic acid formed per minute per milligram of protein. Protein was determined by the Bradford dye-binding method using bovine serum albumin as a standard.

oregano clonal line 0-4 [6] = format: cell-based; settings: ± SD; for RA Levels: 30 days (Example 3)
Protocol: (§7) A mucoid, non-pathogenic Pseudomonas sp. strain was isolated as a contaminant of an oregano shoot culture. This Pseudomonas sp. was termed strain F. This strain was used in selecting Pseudomonas tolerant clonal lines. Strain F was grown on yeast extract-mannitol medium (Difco, Inc., Detroit, Mich.) until the inoculum density was about 10^9 colony forming units/mL. The bacterial suspension was diluted 100-fold in sterile distilled water and about 2.5 ml was dispensed into petri plates. Individual shoots of each clonal line at about 30 days of subculture were removed by cutting at the basal end and then inoculated by dipping the cut end into the diluted bacterial suspension. Inoculated shoots were then transferred to half-strength hormone-free MS medium, which induces root formation, and incubated in a growth room at 23° C., on a 16/8 hours day/night schedule. About 40 shoots of each clone were inoculated. Control shoots of each clonal line were transferred to the same medium, but were not exposed to bacteria.
as §3
(§8) Individual shoot tissue propagules of each clonal line were transferred to half strength hormone-free MS medium supplemented with 100 μM A2C. RA content, proline content, and morphological abnormalities were determined as described in Example 1.
as §6, §2

oregano clonal line 0-5 [7] = format: cell-based; settings: for RA Levels: 30 days (Example 3)
Protocol: as §7, §3, §8, §6, §2

rosemary clonal line R-1 [8] = experiment: RA content of shoot propagules, rosemary clonal line R-1; format: cell-based; settings: 30 to 45 days
Protocol: as §3, §4, §5

thyme clonal line T-12 = experiment: RA content of shoot propagules, thyme clonal line T-12; format: cell-based; settings: 30 to 45 days, ± SD
Protocol: as §3, §4, §5

O=C(O)C1CCN1 (stereo not shown) [A2C, azetidine-2-carboxylic acid]
survival of line in culture (oregano clonal line OM-8): killed
increase in RA content on a fresh weight basis vs tissue cultured in the absence of A2C (oregano clonal lines): at least 2 fold
RA Levels ([1]; rosemary R-15, A2C 100 μM, ± SD): 9.4 ± 0.6 mg/g FW
RA Levels ([1]; rosemary R-15, A2C 200 μM): inhibited
morphological abnormalities (oregano clonal line 0-4 [2]): no morphological abnormalities
survival of line in culture (oregano clonal line 0-5 [3]): killed
survival of line in culture (rosemary clonal line R-1 [4]): killed
PAL specific activity ([5]; 10 days of culture treatment): 2.83 nanomoles cinnamate/min/mg protein
PAL specific activity ([5]; 25 days of culture treatment): 2.64 nanomoles cinnamate/min/mg protein
RA (oregano clonal line 0-4 [6]; line 0-4, 100 μM A2C, day 30 (Example 2)): 4.3 mg/g FW and 4.3 ± 0.7 mg/g FW
RA Levels (oregano clonal line 0-4 [6]; line 0-4, A2C 100 μM): 6.4 ± 0.8 mg/g FW
RA Levels (oregano clonal line 0-4 [6]; line 0-4, A2C 200 μM): 6.8 ± 0.7 mg/g FW
RA (oregano clonal line 0-5 [7]; line 0-5, 100 μM A2C, 30 days, remaining tissue portions (primarily shoot tips) (Example 2), ± SD): 3.2 mg/g FW and 3.2 ± 0.4 mg/g FW
RA Levels (oregano clonal line 0-5 [7]; line 0-5, A2C 100 μM, ± SD): 3.1 ± 0.5 mg/g FW
RA Levels (oregano clonal line 0-5 [7]; line 0-5, A2C 200 μM): inhibited
RA Levels (rosemary clonal line R-1 [8]; rosemary R-1, A2C 100 μM, ± SD): 4.9 ± 0.5 mg/g FW
RA Levels (rosemary clonal line R-1 [8]; rosemary R-1, A2C 200 μM): inhibited
RA Levels (thyme clonal line T-12; thyme T-12, A2C 100 μM): 4.1 ± 0.5 mg/g FW
RA Levels (thyme clonal line T-12; thyme T-12, A2C 200 μM): 5.1 ± 0.5 mg/g FW
